Test results published in ChEMBL document CHEMBL1129155, “Synthesis and antibacterial activity of cephalosporins having hydroxamic acid at C-7 position” (1996).
≈ marks a conversion by molar mass, not a printed value.

Key:
Type in all cases: functional
Staphylococcus aureus [1] = assay: Compound was evaluated for antibacterial activity against Staphylococcus aureus C2379 (MRSA).
Pseudomonas aeruginosa [2] = assay: Compound was evaluated for antibacterial activity against Pseudomonas aeruginosa 1771.
Serratia marcescens = assay: Compound was evaluated for antibacterial activity against Serratia marcescens IFO 12648.
Pseudomonas aeruginosa [3] = assay: Compound was evaluated for antibacterial activity against Pseudomonas aeruginosa 9027.
Staphylococcus aureus [4] = assay: Compound was evaluated for antibacterial activity against Staphylococcus aureus Smith.
Enterobacter cloacae = assay: Compound was evaluated for antibacterial activity against Enterobacter cloacae P99.
Proteus vulgaris = assay: Compound was evaluated for antibacterial activity against Proteus vulgaris GN76.
Pseudomonas aeruginosa [5] = assay: Compound was evaluated for antibacterial activity against Pseudomonas aeruginosa C-1198.
Streptococcus pneumoniae = assay: Compound was evaluated for antibacterial activity against Streptococcus pneumoniae type I.
Escherichia coli [6] = assay: Compound was evaluated for antibacterial activity against Escherichia coli DC 2.
Streptococcus pyogenes = assay: Compound was evaluated for antibacterial activity against Streptococcus pyogenes A77.
Escherichia coli [7] = assay: Compound was evaluated for antibacterial activity against Escherichia coli DC 0.
Pseudomonas aeruginosa [8] = assay: Compound was evaluated for antibacterial activity against Pseudomonas aeruginosa 1771M.
Klebsiella pneumoniae = assay: Compound was evaluated for antibacterial activity against Klebsiella pneumoniae NCTC 9632.

Row | Structure (SMILES) | MIC (Staphylococcus aureus [1]) [µg/mL] | MIC (Pseudomonas aeruginosa [2]) [µg/mL] | MIC (Serratia marcescens) [µg/mL] | MIC (Pseudomonas aeruginosa [3]) [µg/mL] | MIC (Staphylococcus aureus [4]) [µg/mL] | MIC (Enterobacter cloacae) [µg/mL] | MIC (Proteus vulgaris) [µg/mL] | MIC (Pseudomonas aeruginosa [5]) [µg/mL] | MIC (Streptococcus pneumoniae) [µg/mL] | MIC (Escherichia coli [6]) [µg/mL] | MIC (Streptococcus pyogenes) [µg/mL] | MIC (Escherichia coli [7]) [µg/mL] | MIC (Pseudomonas aeruginosa [8]) [µg/mL] | MIC (Klebsiella pneumoniae) [µg/mL]
1 | CC(=O)N(O)CCO/N=C(\C(=O)N[C@@H]1C(=O)N2C(C(=O)[O-])=C(C[n+]3cccc4c3CCC4)CS[C@H]12)c1csc(N)n1 | 6.25 (≈ 10.4 µM) | 1.56 (≈ 2.6 µM) | 0.781 (≈ 1.3 µM) | 6.25 (≈ 10.4 µM) | 0.781 (≈ 1.3 µM) | 25 (≈ 41.6 µM) | 1.56 (≈ 2.6 µM) | 50 (≈ 83.1 µM) | 0.025 (≈ 0.0416 µM) | 0.195 (≈ 0.324 µM) | 0.004 (≈ 0.00665 µM) | 0.391 (≈ 0.65 µM) | 0.781 (≈ 1.3 µM) | 0.195 (≈ 0.324 µM)
2 | CC(=O)N(O)CCO/N=C(\C(=O)N[C@@H]1C(=O)N2C(C(=O)O)=C(CSc3nc(C)c(CC(=O)O)s3)CS[C@H]12)c1csc(N)n1 | 100 (≈ 149 µM) | 3.12 (≈ 4.65 µM) | 1.56 (≈ 2.33 µM) | 12.5 (≈ 18.6 µM) | 12.5 (≈ 18.6 µM) | 50 (≈ 74.4 µM) | 0.049 (≈ 0.0729 µM) | 50 (≈ 74.4 µM) | 0.049 (≈ 0.0729 µM) | 0.098 (≈ 0.146 µM) | 0.013 (≈ 0.0194 µM) | 0.781 (≈ 1.16 µM) | 0.391 (≈ 0.582 µM) | 0.098 (≈ 0.146 µM)
3 | CC(=O)N(O)CCO/N=C(\C(=O)N[C@@H]1C(=O)N2C(C(=O)[O-])=C(CSc3cccc4[n+]3CCN4)CS[C@H]12)c1csc(N)n1 | 12.5 (≈ 19.7 µM) | 3.12 (≈ 4.92 µM) | 3.12 (≈ 4.92 µM) | 12.5 (≈ 19.7 µM) | 1.56 (≈ 2.46 µM) | 50 (≈ 78.8 µM) | 3.12 (≈ 4.92 µM) | 50 (≈ 78.8 µM) | 0.025 (≈ 0.0394 µM) | 1.56 (≈ 2.46 µM) | 0.025 (≈ 0.0394 µM) | 1.56 (≈ 2.46 µM) | 3.12 (≈ 4.92 µM) | 0.025 (≈ 0.0394 µM)
4 | CC(=O)N(O)CCO/N=C(\C(=O)N[C@@H]1C(=O)N2C(C(=O)[O-])=C(C[n+]3ccc(CN(O)C(C)=O)cc3)CS[C@H]12)c1csc(N)n1 | 50 (≈ 77.1 µM) | 25 (≈ 38.5 µM) | 12.5 (≈ 19.3 µM) | 50 (≈ 77.1 µM) | 12.5 (≈ 19.3 µM) | 50 (≈ 77.1 µM) | 6.25 (≈ 9.63 µM) | > 100 | 0.049 (≈ 0.0755 µM) | 0.391 (≈ 0.603 µM) | 0.007 (≈ 0.0108 µM) | 12.5 (≈ 19.3 µM) | 6.25 (≈ 9.63 µM) | 0.781 (≈ 1.2 µM)
5 | CC(C)(O/N=C(\C(=O)N[C@@H]1C(=O)N2C(C(=O)[O-])=C(C[n+]3ccccc3)CS[C@H]12)c1csc(N)n1)C(=O)O [CEFTAZIDIME] | 50 (≈ 91.5 µM) | 0.781 (≈ 1.43 µM) | 0.098 (≈ 0.179 µM) | 3.12 (≈ 5.72 µM) | 6.25 (≈ 11.4 µM) | > 100 | 0.049 (≈ 0.0896 µM) | > 100 | 0.195 (≈ 0.357 µM) | 0.098 (≈ 0.179 µM) | 0.098 (≈ 0.179 µM) | 0.195 (≈ 0.357 µM) | 0.391 (≈ 0.715 µM) | 0.049 (≈ 0.0896 µM)
6 | CC(=O)N(O)CCO/N=C(\C(=O)N[C@@H]1C(=O)N2C(C(=O)[O-])=C(C[n+]3ccccc3)CS[C@H]12)c1csc(N)n1 | 12.5 (≈ 22.3 µM) | 0.781 (≈ 1.39 µM) | 0.391 (≈ 0.696 µM) | 6.25 (≈ 11.1 µM) | 3.12 (≈ 5.56 µM) | 25 (≈ 44.5 µM) | 0.781 (≈ 1.39 µM) | 25 (≈ 44.5 µM) | 0.049 (≈ 0.0873 µM) | 0.195 (≈ 0.347 µM) | 0.007 (≈ 0.0125 µM) | 0.781 (≈ 1.39 µM) | 0.391 (≈ 0.696 µM) | 0.098 (≈ 0.175 µM)
